The subject of this experiment is P388 leukemia ip, CD2F1 mice, survival T/C. In words: NCI In Vivo Anticancer Drug Screen. Data for tumor model P388 Leukemia (intraperitoneal) in CD2F1 (CDF1) mice. To be noted: endpoint: median survival time, higher = longer survival. In short, it runs like this:
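Mice carrying the transplanted tumor received test compound or vehicle. Survival was recorded in each group, and the value is the treated-group measurement divided by that of the vehicle-treated control group.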

[1] abbreviates: dose: 50.0 mg/kg/injection, schedule: Q01DX005 (ip), vehicle: saline.
Setting [2] is: dose: 60.0 mg/kg/injection, schedule: Q01DX005 (ip), vehicle: saline with Tween-80.
Setting [3] is: dose: 120.0 mg/kg/injection, schedule: Q01DX005 (ip), vehicle: saline with Tween-80.
Where [4] appears, read: dose: 50.0 mg/kg/injection, schedule: Q01DX005 (ip), vehicle: Klucel (hydroxypropylcellulose) (HPC).
The mark [5] stands for this setting: dose: 100.0 mg/kg/injection, schedule: Q01DX005 (ip), vehicle: Klucel (hydroxypropylcellulose) (HPC).
[6] abbreviates: dose: 200.0 mg/kg/injection, schedule: Q01DX005 (ip), vehicle: Klucel (hydroxypropylcellulose) (HPC).
[7] abbreviates: dose: 50.0 mg/kg/injection, schedule: Q01DX005 (ip), vehicle: saline with Tween-80.
Where [8] appears, read: dose: 100.0 mg/kg/injection, schedule: Q01DX005 (ip), vehicle: saline with Tween-80.
Where [9] appears, read: dose: 200.0 mg/kg/injection, schedule: Q01DX005 (ip), vehicle: saline with Tween-80.

Where “and” joins values, the source holds several entries; their conditions need not be identical. Identical values can stand only once. Inconclusive results and toxic doses are left out.

13 compounds from PubChem BioAssay AID330 (DTP/NCI, 2004) can be followed below.

Consider `CC(=O)N(C)c1ccc(Nc2cc(C)[nH]c3ccc4ncnc4c23)cc1`, for which the T/C is, setting by setting: (dose: 5.0 mg/kg/injection, schedule: Q01DX005 (ip), vehicle: saline) 120 % of control and 122 % of control; (dose: 6.25 mg/kg/injection, schedule: Q01DX005 (iv), vehicle: saline) 100 % of control; (dose: 7.0 mg/kg/injection, schedule: Q01DX005 (ip), vehicle: saline) 121 % of control and 123 % of control; (dose: 11.0 mg/kg/injection, schedule: Q01DX005 (ip), vehicle: saline) 123 % of control; (dose: 12.5 mg/kg/injection, schedule: Q01DX001 (iv), vehicle: saline) 104 % of control; (dose: 12.5 mg/kg/injection, schedule: Q01DX005 (iv), vehicle: saline) 106 % of control. Further, the T/C is 101 % of control (dose: 12.5 mg/kg/injection, schedule: Q01DX005 (oral), vehicle: saline); 95 % of control (dose: 12.5 mg/kg/injection, schedule: Q01DX009 (oral), vehicle: saline); 110 % of control (dose: 25.0 mg/kg/injection, schedule: Q01DX001 (ip), vehicle: saline); 100 % of control (dose: 25.0 mg/kg/injection, schedule: Q01DX001 (iv), vehicle: saline); 101 % of control (dose: 25.0 mg/kg/injection, schedule: Q01DX001 (oral), vehicle: saline); 105 % of control (dose: 25.0 mg/kg/injection, schedule: Q01DX005 (iv), vehicle: saline). Besides, the T/C (dose: 25.0 mg/kg/injection, schedule: Q01DX005 (oral), vehicle: saline) is 100 % of control; the T/C (dose: 25.0 mg/kg/injection, schedule: Q01DX009 (oral), vehicle: saline) is 94 % of control; the T/C (dose: 50.0 mg/kg/injection, schedule: Q01DX001 (ip), vehicle: saline) is 123 % of control; the T/C (dose: 50.0 mg/kg/injection, schedule: Q01DX001 (iv), vehicle: saline) is 103 % of control; the T/C (dose: 50.0 mg/kg/injection, schedule: Q01DX001 (oral), vehicle: saline) was 99 % of control; the T/C under setting [1] is 155 % of control. The T/C (dose: 50.0 mg/kg/injection, schedule: Q01DX005 (iv), vehicle: saline) is 100 % of control; the T/C (dose: 50.0 mg/kg/injection, schedule: Q01DX005 (oral), vehicle: saline) is 103 % of control; the T/C (dose: 50.0 mg/kg/injection, schedule: Q01DX009 (oral), vehicle: saline) was 103 % of control; the T/C (dose: 90.0 mg/kg/injection, schedule: Q04DX002 (ip), vehicle: saline) is 158 % of control; the T/C (dose: 100.0 mg/kg/injection, schedule: Q01DX001 (ip), vehicle: saline) is 157 % of control; the T/C (dose: 100.0 mg/kg/injection, schedule: Q01DX001 (iv), vehicle: saline) was 124 % of control. Besides, the T/C reads like this: (dose: 100.0 mg/kg/injection, schedule: Q01DX001 (oral), vehicle: saline) 101 % of control; (dose: 100.0 mg/kg/injection, schedule: Q01DX005 (oral), vehicle: saline) 97 % of control; (dose: 100.0 mg/kg/injection, schedule: Q01DX009 (oral), vehicle: saline) 104 % of control; (dose: 200.0 mg/kg/injection, schedule: Q01DX001 (oral), vehicle: saline) 105 % of control; (dose: 200.0 mg/kg/injection, schedule: Q01DX005 (oral), vehicle: saline) 103 % of control; (dose: 200.0 mg/kg/injection, schedule: Q01DX009 (oral), vehicle: saline) 100 % of control. Also, the T/C by setting is: (dose: 300.0 mg/kg/injection, schedule: Q01DX001 (oral), vehicle: saline) 102 % of control; (dose: 300.0 mg/kg/injection, schedule: Q01DX005 (oral), vehicle: saline) 106 % of control; (dose: 400.0 mg/kg/injection, schedule: Q01DX001 (oral), vehicle: saline) 106 % of control; (dose: 600.0 mg/kg/injection, schedule: Q01DX001 (oral), vehicle: saline) 119 % of control; (dose: 600.0 mg/kg/injection, schedule: Q01DX005 (oral), vehicle: saline) 119 % of control; (dose: 1200.0 mg/kg/injection, schedule: Q01DX001 (oral), vehicle: saline) 119 % of control.
Consider `Ic1ccc(N=Cc2ccc(C=Nc3ccc(I)cc3)cc2)cc1`, for which the T/C by setting is: (dose: 12.5 mg/kg/injection, schedule: Q01DX009 (ip), vehicle: Klucel (hydroxypropylcellulose) (HPC)) 99 % of control; (dose: 25.0 mg/kg/injection, schedule: Q01DX009 (ip), vehicle: Klucel (hydroxypropylcellulose) (HPC)) 95 % of control; (dose: 50.0 mg/kg/injection, schedule: Q01DX009 (ip), vehicle: Klucel (hydroxypropylcellulose) (HPC)) 100 % of control; (dose: 100.0 mg/kg/injection, schedule: Q01DX009 (ip), vehicle: Klucel (hydroxypropylcellulose) (HPC)) 86 % of control; (dose: 200.0 mg/kg/injection, schedule: Q01DX009 (ip), vehicle: Klucel (hydroxypropylcellulose) (HPC)) 89 % of control.
Turning to `CC1(C)SC(C(NC(=O)COc2ccccc2)C(=O)O)NC1C(=O)O` (centres undefined), the T/C by setting is: (dose: 50.0 mg/kg/injection, schedule: Q04DX003 (ip), vehicle: saline with Tween-80) 90 % of control; (dose: 100.0 mg/kg/injection, schedule: Q04DX003 (ip), vehicle: saline with Tween-80) 95 % of control; (dose: 200.0 mg/kg/injection, schedule: Q04DX003 (ip), vehicle: saline with Tween-80) 95 % of control.
Regarding `CSCCC(C(=O)O)N(CCC#N)CCC#N` (centres undefined), the T/C under setting [1] is 98 % of control; the T/C (dose: 100.0 mg/kg/injection, schedule: Q01DX005 (ip), vehicle: saline) is 102 % of control; the T/C (dose: 200.0 mg/kg/injection, schedule: Q01DX005 (ip), vehicle: saline) is 100 % of control.
As to `CCCCCC(CN(C)C)C(=O)/C=C/c1ccccc1` (centres undefined), the T/C is, setting by setting: (dose: 12.5 mg/kg/injection, schedule: Q01DX009 (ip), vehicle: saline) 102 % of control; (dose: 25.0 mg/kg/injection, schedule: Q01DX009 (ip), vehicle: saline) 94 % of control; (dose: 50.0 mg/kg/injection, schedule: Q01DX009 (ip), vehicle: saline) 104 % of control; (dose: 100.0 mg/kg/injection, schedule: Q01DX009 (ip), vehicle: saline) 105 % of control.
For the compound `c1ccc(-c2cc3c(cc4c5nncn5ncn34)o2)cc1`, the T/C was 86 % of control under setting [2]; 86 % of control under setting [3]; 91 % of control and 92 % of control (dose: 240.0 mg/kg/injection, schedule: Q01DX005 (ip), vehicle: saline with Tween-80).
As to `COC(=O)CCC1=C(C)c2cc3[nH]c(cc4[nH]c(cc5nc(cc1n2)C(CCC(=O)OC)=C5C)c(C1CC1C(=O)OC)c4C)c(C1CC1C(=O)OC)c3C` (centres undefined), the T/C is 104 % of control under setting [4], 104 % of control under setting [5] and 109 % of control under setting [6].
For `CCCCCCCCCCCCSC1COC2C(SCCCCCCCCCCCC)COC12` (centres undefined), the T/C by setting is: under setting [7], 100 % of control; under setting [8], 96 % of control; under setting [9], 99 % of control.
Consider `C[CH2][Pb]([CH2]C)([CH2]C)[O]C(=O)CBr`, for which the T/C by setting is: (dose: 2.0 mg/kg/injection, schedule: Q01DX009 (ip), vehicle: saline) 111 % of control; (dose: 3.0 mg/kg/injection, schedule: Q01DX009 (ip), vehicle: saline) 117 % of control; (dose: 4.5 mg/kg/injection, schedule: Q01DX009 (ip), vehicle: saline) 119 % of control.
`Nc1nnc2nc(C(C(=O)c3ccc(F)cc3)c3nc4nnc(N)n4[nH]c3=O)c(=O)[nH]n12`: the T/C under setting [7] is 98 % of control, the T/C under setting [8] was 92 % of control and the T/C under setting [9] was 91 % of control.
As to `O=C(CNC(=O)c1ccc(Cl)cc1Cl)N/N=C/c1cccc([N+](=O)[O-])c1`, the T/C (dose: 3.13 mg/kg/injection, schedule: Q01DX009 (ip), vehicle: saline with Tween-80) is 91 % of control; the T/C (dose: 6.25 mg/kg/injection, schedule: Q01DX009 (ip), vehicle: saline with Tween-80) is 92 % of control; the T/C (dose: 12.5 mg/kg/injection, schedule: Q01DX009 (ip), vehicle: saline with Tween-80) is 106 % of control.
Regarding `CN(C)C1CS(=O)(=O)OC2=C1COCC2` (centres undefined), the T/C by setting is: under setting [2], 101 % of control; under setting [3], 105 % of control.
For `CC(=O)CC(=O)C1C(S[As](C)C)CC2C3CCC4=CC(=O)C=CC4(C)C3C(=O)CC21C` (centres undefined), the T/C is 102 % of control under setting [4]; 91 % of control and 94 % of control under setting [5]; 94 % of control and 98 % of control under setting [6].
